In article PMC11288311 (Cell chemical biology, 2022):

Experiments:
[1] = test system: LRH-1 LBD Y516A or K520A; format: binding, human; conditions: Y516A or K520A mutation
[2] = Aqueous solubility by LC-MS in PBS; format: physicochemical; conditions: PBS pH 7.4, 25°C, 2 hours
[3] = test system: LRH-1 K520A; assay: Luciferase reporter assay with LRH-1 K520A mutant; format: cell-based, human; conditions: K520A mutation, 30 μM, 24 hours
[4] = test system: endogenous LRH-1 in Huh7 hepatocytes; assay: qRT-PCR of LRH-1 targets in Huh7 hepatocytes; format: cell-based, human; conditions: Huh7, 24-hour treatment
[5] = molecular target: mouse LRH-1 (Mus musculus, UniProt P45448); assay: Activation of mouse LRH-1 in vitro
[6] = test system: hLRH-1 enteroids; assay: Gene expression in TNF-stimulated humanized LRH-1 mouse intestinal enteroids; format: cell-based; conditions: 1 μM overnight, not observed in LRH-1-deficient enteroids
[7] = test system: hLRH1 IEC Rag2-/- mice; assay: T cell transfer; format: in vivo, mouse; conditions: 20 mg/kg i.p., 16 days
[8] = test system: human LRH-1 (hLRH-1) in the liver; assay: Liver gene expression

Chain of mouse LRH-1 (P45448 whole entry): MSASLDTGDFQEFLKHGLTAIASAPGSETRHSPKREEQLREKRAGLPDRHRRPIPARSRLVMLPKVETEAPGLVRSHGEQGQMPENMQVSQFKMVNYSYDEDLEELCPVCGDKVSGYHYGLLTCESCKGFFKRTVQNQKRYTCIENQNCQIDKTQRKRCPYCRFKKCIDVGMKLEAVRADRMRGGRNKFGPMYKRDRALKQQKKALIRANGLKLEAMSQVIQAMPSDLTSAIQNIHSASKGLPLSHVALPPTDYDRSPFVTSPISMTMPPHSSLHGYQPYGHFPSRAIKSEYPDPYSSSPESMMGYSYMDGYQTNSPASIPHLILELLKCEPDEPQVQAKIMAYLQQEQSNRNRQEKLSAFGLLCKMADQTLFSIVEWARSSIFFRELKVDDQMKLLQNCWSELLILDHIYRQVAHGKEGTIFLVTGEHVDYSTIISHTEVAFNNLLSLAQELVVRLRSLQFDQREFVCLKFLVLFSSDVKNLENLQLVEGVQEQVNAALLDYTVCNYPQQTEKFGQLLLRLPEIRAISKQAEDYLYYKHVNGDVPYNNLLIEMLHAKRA

For `C=C(c1ccccc1)[C@@]12CC[C@@H](O)[C@@H]1CC(CCCCCC)=C2c1ccccc1` [RJW100], the “Decrease in binding affinity, mutant versus WT LRH-1” value [1] was “insensitive or less sensitive” and the Aqueous solubility limit [2] was 2.9 µM.

With `C=C(c1ccccc1)[C@@]12CC[C@@H](O)[C@@H]1CC(CCCCCCCCCC(=O)O)=C2c1ccccc1` [Compound 10CA] the “Reduction of activation versus WT LRH-1” value [3] was “around 60%”, the “Expression of LRH-1 targets SHP (NR0B2) and PLK3” value [4] was “dose-dependently upregulates” and the “Expression of de novo lipogenesis targets SREBF1, ACACB, FASN, SCD1” value [4] was “downregulates”. The “Activation of mouse LRH-1” value [5] was “poor activators of mouse LRH-1”, the “Expression of Cyp11a1 and Il-10” value [6] was “induces expression” and the “Body weight at end of study relative to mean pre-treatment body weight” value [7] was at most 1%. The Colon histology scores [7] was “markedly improved”, the “Expression of LRH-1 targets Cyp8b1, Cyp11a1, Cyp11b1 in colonic crypts” value [7] was “strong upregulation” and the “Liver expression of lipogenic genes (Fasn, Acacb, Scd1)” value ([8]; 0.1, 1 or 10 mg/kg, five i.p. injections over three days) was “downregulation of lipogenic genes”. For the same compound, the “Liver expression of Srebf1” value ([8]; not statistically significant, p = 0.09 versus vehicle) was “trends lower”.
